{"source": "patent US20220221458A1", "about": "“NOROVIRUS-BINDING PEPTIDE” (Kao Corporation, priority 2019, published 2022)", "note": "Ends that are not written are not given here."}
{"test_system": "norovirus VLPs (GII.4, GII.3, GII.17)", "assay": "In vitro selection by cDNA display against VLPs with appearance frequency analysis of sequences", "details": "count among peptide aptamer sequences obtained after in vitro selection cycles (7 cycles GII.4, 5 cycles GII.3 and GII.17)", "protocol": "The constructed cDNA display and VLPs were incubated in 100 μL of a dialysis selection buffer (20 mM HEPES (pH 7.4), 150 mM NaCl, and 0.05% s Tween 20) at the concentrations shown in Table 9 below at 25° C. for 30 minutes. Subsequently, the resultant was diluted to 1 mL with the dialysis selection buffer, and was put in Float-A-Lyzer G2 Dialysis Device CE, 1000kD MWCO (manufactured by Spectrum Laboratories, Inc.) and was dialyzed with 1 L of the dialysis selection buffer as the external solution at 25° C. During the dialysis, the external solution was replaced with new one 3 times every 2 hours, and the dialysis was performed overnight (for 8 hours) after the 4th replacement. The dialysis product was concentrated with Amicon Ultra 100K (manufactured by Merck Millipore S.A.S.) at 14,000×g for 5 minutes.\nTo an immunoplate (C-BOTTOM, CLEAR, MICROLON (registered trademark), HIGH BINDING, manufactured by Greiner Bio-One), 100 μL of 3 μg/mL GII.3 or GII.17 VLP solution was added and immobilization was performed at 4° C. overnight. Subsequently, the solution was discarded, and 200 μL of a blocking agent (EMD Millipore™ Blok™ NSB Blocking agents, Thermo Fisher Scientific) was added, followed by gently stirring at room temperature for 2 hours for blocking. On this occasion, wells not immobilizing the VLP were also subjected to similar blocking to be used in preselection.\nThe solution was discarded from the wells, the wells were washed with 200 μL of a wash buffer (10 mM Hepes (pH 7.4), 150 mM NaCl, and 0.05% Tween 20) three times, and 100 μL of cDNA display (constructed from 1.5 pmol of mRNA-linker) was then put in the wells not immobilizing the VLP, followed by gently stirring at room temperature for 30 minutes to perform preselection. Subsequently, the supernatant containing cDNA display that had not bound to the blocking agent was put in the wells immobilizing the VLP, followed by gently stirring at room temperature for 30 minutes to be bound to the VLP. The supernatant was discarded, washing with 100 μL of the wash buffer was performed four times, and 100 μL of a 5′ SDS solution was then added, followed by incubation at 50° C. for 15 minutes to elute the bound cDNA display.\nSubsequently, the VLP-cDNA display complex obtained above was diluted to 100 μL with a dialysis selection buffer, and 10 μL of a coprecipitating agent (Quick-Precip Plus Solution, manufactured by EdgeBio) and 220 μL of 100% ethanol were added, followed by centrifugation at 20,000×g for 5 minutes. Subsequently, the supernatant was discarded, and 1 mL of 70, ethanol was added for rinsing. […] The PCR program was (a) 98° C. for 2 minutes, (b) 95° C. for 20 seconds, (c) 69° C. for 20 seconds, (d) 72° C. for 20 seconds (steps (b) to (d) were performed 25 cycles), and (e) 72° C. for 1 minute.\nAfter the in vitro selection cycle (7 cycles for GII.4 and 5 cycles for GII.3 and GII.17 based on the libraries of 7 cycles obtained by GII.4 dialysis), a sequence library was prepared by the following method, and the sequence information was analyzed. The preparation of the sequence library and the sequencing were performed according to the 16S Metagenomic Sequencing Library Preparation protocol (manufactured by Illumina, Inc.).\nThe Fastq file of the obtained sequence was converted to a Fasta file, all of the obtained sequences were simultaneously translated from the first base of the start codon (ATG) at position 115 to the third base of the cysteine codon (TGC) at position 156 of the library sequence (SEQ ID NO: 279) using software MEGA."}
{"molecule": "7 (GWHETE; Designed peptide) [compound 7]", "Appearance Frequency": 17}
{"molecule": "29 (DLLNSK; Designed peptide) [compound 29]", "Appearance Frequency": 11}
{"molecule": "252 (SRSHWG; Designed peptide) [compound 252]", "Appearance Frequency": 6}
{"molecule": "30 (DRYSAW; Designed peptide) [compound 30]", "Appearance Frequency": 11}
{"molecule": "206 (KSMNNG; Designed peptide) [compound 206]", "Appearance Frequency": 6}
{"molecule": "269 (YYPDHP; Designed peptide) [compound 269]", "Appearance Frequency": 6}
{"molecule": "216 (NCRTRP; Designed peptide) [compound 216]", "Appearance Frequency": 6}
{"molecule": "162 (YRARMS; Designed peptide) [compound 162]", "Appearance Frequency": 7}
{"molecule": "140 (RFVKRR; Designed peptide) [compound 140]", "Appearance Frequency": 7}
{"molecule": "213 (MQFELV; Designed peptide) [compound 213]", "Appearance Frequency": 6}
{"molecule": "185 (GRNAGR; Designed peptide) [compound 185]", "Appearance Frequency": 6}
{"molecule": "265 (WVFVKH; Designed peptide) [compound 265]", "Appearance Frequency": 6}
{"molecule": "5 (RCSHLR; Designed peptide) [compound 5]", "Appearance Frequency": 18}
{"molecule": "219 (NKSFHR; Designed peptide) [compound 219]", "Appearance Frequency": 6}
{"molecule": "25 (NLYDRF; Designed peptide) [compound 25]", "Appearance Frequency": 12}
{"molecule": "209 (LNDMSF; Designed peptide) [compound 209]", "Appearance Frequency": 6}
{"molecule": "145 (RRRTFH; Designed peptide) [compound 145]", "Appearance Frequency": 7}
{"molecule": "106 (FPTGTT; Designed peptide) [compound 106]", "Appearance Frequency": 7}
{"molecule": "242 (RTISGS; Designed peptide) [compound 242]", "Appearance Frequency": 6}
{"molecule": "78 (GQRLTV; Designed peptide) [compound 78]", "Appearance Frequency": 8}
{"molecule": "83 (KTRAIN; Designed peptide) [compound 83]", "Appearance Frequency": 8}
{"molecule": "208 (LLGKPV; Designed peptide) [compound 208]", "Appearance Frequency": 6}
{"molecule": "22 (GLRYRE; Designed peptide) [compound 22]", "Appearance Frequency": 12}
{"molecule": "117 (HHYRGL; Designed peptide) [compound 117]", "Appearance Frequency": 7}
{"molecule": "241 (RSSAKR; Designed peptide) [compound 241]", "Appearance Frequency": 6}
{"molecule": "235 (RHTQTL; Designed peptide) [compound 235]", "Appearance Frequency": 6}
{"molecule": "85 (LHMKPI; Designed peptide) [compound 85]", "Appearance Frequency": 8}
{"molecule": "225 (PWTVPN; Designed peptide) [compound 225]", "Appearance Frequency": 6}
{"molecule": "116 (HHRLHG; Designed peptide) [compound 116]", "Appearance Frequency": 7}
{"molecule": "54 (FDHFYS; Designed peptide) [compound 54]", "Appearance Frequency": 9}
{"molecule": "134 (NPKAHL; Designed peptide) [compound 134]", "Appearance Frequency": 7}
{"molecule": "87 (SIESCL; Designed peptide) [compound 87]", "Appearance Frequency": 8}
{"molecule": "115 (GVNSGH; Designed peptide) [compound 115]", "Appearance Frequency": 7}
{"molecule": "169 (DRWGSK; Designed peptide) [compound 169]", "Appearance Frequency": 6}
{"molecule": "63 (REESFS; Designed peptide) [compound 63]", "Appearance Frequency": 9}
{"molecule": "97 (VISLET; Designed peptide) [compound 97]", "Appearance Frequency": 8}
{"molecule": "48 (VDSTSV; Designed peptide) [compound 48]", "Appearance Frequency": 10}
{"molecule": "183 (GMDLRS; Designed peptide) [compound 183]", "Appearance Frequency": 6}
{"molecule": "245 (RYMPVA; Designed peptide) [compound 245]", "Appearance Frequency": 6}
{"molecule": "211 (LTALSV; Designed peptide) [compound 211]", "Appearance Frequency": 6}
{"molecule": "168 (DKVCKN; Designed peptide) [compound 168]", "Appearance Frequency": 6}
{"molecule": "167 (CLHFAL; Designed peptide) [compound 167]", "Appearance Frequency": 6}
{"molecule": "232 (RGHPST; Designed peptide) [compound 232]", "Appearance Frequency": 6}
{"molecule": "12 (LNWSRS; Designed peptide) [compound 12]", "Appearance Frequency": 15}
{"molecule": "104 (DRVQSR; Designed peptide) [compound 104]", "Appearance Frequency": 7}
{"molecule": "2 (CLSNLA; Designed peptide) [compound 2]", "Appearance Frequency": 21}
{"target": "GII.3 VLP", "assay": "Calculation of KD value by bio-layer interferometry (BLI method)", "assay_type": "binding, norovirus", "details": "BLItz, biotinylated peptide 100 μM on SA chip; GII.3 VLP 1 and 0.1 mg/mL; calculated from ka and kd", "experimental": "(§1) <Calculation of KD Value by Bio-Layer Interferometry: BLI Method>\n(§2) The apparatus used was BLItz™ (manufactured by ForteBio). The tip of SA chip (manufactured by ForteBio) was kept in contact with purified water for 1 minute for hydration and was then kept in contact with a 1% BSA aqueous solution for 1 hour for blocking. The SA chip subjected to blocking treatment was set to the measuring unit of the BLItz™ main body, and measurement was performed according to the program shown in Table 14. The peptides of SEQ ID NOs: 1, 21, and 28 were used, and the concentration was adjusted to 100 μM. The concentration of the GII.3 VLP was adjusted to 1 and 0.1 mg/mL. The measurement data were analyzed using the attached software, and the KD value was calculated based on the Ka and Kd values.", "units": {"Kd": "µM"}}
{"molecule": "VMMQCP [SEQ ID NO: 28]", "Kd": 218}
{"molecule": "GRRYYI [SEQ ID NO: 1]", "Kd": 6.01}
{"molecule": "GKFFCH [SEQ ID NO: 21]", "Kd": 107}
{"test_system": "GII.3 VLP", "assay": "Calculation of KD value by bio-layer interferometry (BLI method)", "assay_type": "binding, norovirus", "details": "BLItz, peptide 100 μM on SA chip; GII.3 VLP 1 and 0.1 mg/mL", "experimental": "as §1, §2", "units": {"ka": "M⁻¹ s⁻¹", "kd": "s⁻¹"}}
{"molecule": "VMMQCP [SEQ ID NO: 28]", "ka": 230, "kd": 0.05}
{"molecule": "GRRYYI [SEQ ID NO: 1]", "ka": 9070, "kd": 0.0546}
{"molecule": "GKFFCH [SEQ ID NO: 21]", "ka": 358, "kd": 0.0382}
{"target": "GII.3 VLP (norovirus GII.3 TCH strain)", "assay": "BLI (BLItz), biotin peptide on SA chip, GII.3 VLP at 1 and 0.1 mg/mL", "details": "not given", "units": {"Kd": "µM", "koff": "s⁻¹", "kon": "M⁻¹ s⁻¹"}}
{"molecule": "GRRYYI (also: spacer with Trp and biotin, letters and position not given here)", "note": "[peptide of SEQ ID NO: 1, synthesized, with spacer sequence and biotin]", "Kd": 6.01, "koff": 0.0546, "kon": 9070}
{"molecule": "VMMQCP (also: spacer with Trp and biotin, letters and position not given here)", "note": "[peptide of SEQ ID NO: 28, synthesized, with spacer sequence and biotin]", "Kd": 218, "koff": 0.05, "kon": 230}
{"molecule": "GKFFCH (also: spacer with Trp and biotin, letters and position not given here)", "note": "[peptide of SEQ ID NO: 21, synthesized, with spacer sequence and biotin]", "Kd": 107, "koff": 0.0382, "kon": 358}
